Here are results for 13 compounds from paper PMC12489694, “Design, Synthesis, Antidiabetic Activity and In Silico Studies of New Hydrazone Derivatives Derived from Acetohexamide” (ACS Omega, 2025).

“Also recorded” adds a separate entry of the source. Like-named read-outs stand apart in the source and are kept apart here. Some results are limits rather than exact numbers.

The test system of one data set is HEK293 cells. Description: MTT cytotoxicity assay on HEK293 cells. In kind it is cell-based, human. To be noted: for cytotoxic effects on healthy HEK293 cells (in words): 24 h, up to 100 μM; for IC50: Homo sapiens, HEK293, 24 h exposure, 12.5–100 μM. The method, then:
The HEK293 was used for cell culture studies and obtained from the American Type Culture Collection (ATCC). Cells were cultured in RPMI-1640 cell medium supplemented with 10% fetal calf serum (FBS) and 1% penicillin/streptomycin. Cells were seeded 6 × 10^5/mL density into 96 well cell culture plates and incubated in a CO2 incubator at 37 °C. The cells were exposed to different chemical concentrations (100, 50, 25 and 12,5 μM) for 24 h after reaching a confluency of 80%.
The MTT assay was used to assess the cell viability. The MTT assay included putting the cells in an MTT solution (at 1 mg/mL concentration) and incubating them for 1 h at 37 °C. The absorbance was measured at a wavelength of 570 nm using an Epoch microplate spectrophotometer.

Data set [1] concerns the target α-glucosidase. Description: α-glucosidase inhibitory activity (p-nitrophenyl-α-D-glucopyranoside method). In kind it is biochemical. The procedure: After 20 min incubation at 37 °C, 90 μL Na2CO3 (100 mM) was added into the each well to stop the enzymatic reaction. Absorbance of the 96-well microplate reader was recorded at 400 nm. Antidiabetic inhibition activity data were taken in three parallel measurements for four concentrations of each synthesis sample. The results of the biological activity analyses are presented as IC50 values.

The target of the next data set is T1, α-amylase (Sus scrofa, UniProt P00690).
T1 sequence (P00690 16-511): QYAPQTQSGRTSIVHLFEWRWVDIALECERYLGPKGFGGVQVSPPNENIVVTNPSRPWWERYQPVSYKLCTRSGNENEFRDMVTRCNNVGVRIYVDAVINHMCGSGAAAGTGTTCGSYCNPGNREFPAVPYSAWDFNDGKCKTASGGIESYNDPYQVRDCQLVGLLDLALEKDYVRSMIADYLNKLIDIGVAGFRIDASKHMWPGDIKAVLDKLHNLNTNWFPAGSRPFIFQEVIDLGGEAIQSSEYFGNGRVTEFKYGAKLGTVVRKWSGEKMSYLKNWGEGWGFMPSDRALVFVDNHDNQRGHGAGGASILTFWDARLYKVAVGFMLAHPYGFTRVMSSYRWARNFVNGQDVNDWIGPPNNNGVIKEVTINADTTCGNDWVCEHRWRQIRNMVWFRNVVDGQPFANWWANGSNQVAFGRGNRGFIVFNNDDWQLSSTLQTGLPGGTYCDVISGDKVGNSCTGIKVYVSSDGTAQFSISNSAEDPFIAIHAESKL
Description: α-amylase inhibitory activity (spectroscopic starch/Lugol method). The format is biochemical.

Data set [2] has as its system α-glucosidase. Description: α-glucosidase inhibitory activity (p-nitrophenyl-α-D-glucopyranoside method). In kind it is biochemical. The source holds these as a separate data set.
Where [3] appears, read: mean ± SEM of three parallel measurements, read-out: antidiabetic inhibition activity IC50, α-glucosidase.
Setting [4] is: no unit in Table 5, same values as Table 2 (there μM), read-out: IC50 value (α-glucosidase), as repeated in docking Table 5.

As to `C[C@H]1O[C@H](O[C@H]2[C@H](O)[C@@H](O)[C@@H](O[C@H]3[C@H](O)[C@@H](O)C(O)O[C@@H]3CO)O[C@@H]2CO)[C@H](O)[C@@H](O)[C@@H]1N[C@H]1C=C(CO)[C@@H](O)[C@H](O)[C@H]1O` (some centres unmarked) [acarbose, reference compound], in the data set on HEK293 cells, the “cytotoxic effects on healthy HEK293 cells (in words)” value (shortened to “cytotoxic effects”) is given as “nontoxic; also recorded: no cytotoxic effects” and the IC50 is above 100 µM.
`C/C(=N\NC(=O)c1ccccc1)c1ccc(S(=O)(=O)NC(=O)NC2CCCCC2)cc1` [compound 1, 4-(1-(2-Benzoylhydrazinilidene)-ethyl)-N-(cyclohexylcarbamoyl)-benzenesulfonamide]: the IC50 at α-glucosidase [1] (setting [3]) was 108 ± 0.69 µM; at α-glucosidase [1] (setting [4]), 108 ± 0.69 µM; with HEK293 cells it was above 100 µM.
`CC(=NNC(=O)c1cccc(Cl)c1)c1ccc(S(=O)(=O)NC(=O)NC2CCCCC2)cc1` [compound 2, 4-(1-(2-(3-Chlorobenzoyl)-hydrazinylidene)-ethyl)-N-(cyclohexylcarbamoyl)-benzenesulfonamide]: the IC50 at α-glucosidase [1] (setting [3]) is 68.75 ± 0.37 µM; at α-glucosidase [1] (setting [4]) it was 68.75 ± 0.37 µM; with HEK293 cells, above 100 µM.
`CC(=NNC(=O)c1ccc(F)cc1)c1ccc(S(=O)(=O)NC(=O)NC2CCCCC2)cc1` [compound 3, N-(Cyclohexylcarbamoyl)-4-(1-(2-(4-fluorobenzoyl)-hydrazinylidene)-ethyl)-benzenesulfonamide]: the IC50 on α-glucosidase [1] (setting [3]) was 45.34 ± 0.36 µM; at α-glucosidase [1] (setting [4]), 45.34 ± 0.36 µM; in the data set with HEK293 cells, above 100 µM. Besides, the “cytotoxic effects” value with HEK293 cells is given as “not causing any damage to healthy cells; also recorded: no negative impact on healthy cells”.
In the case of `CC(=NNC(=O)c1ccc(I)cc1)c1ccc(S(=O)(=O)NC(=O)NC2CCCCC2)cc1` [compound 4, N-(Cyclohexylcarbamoyl)-4-(1-(2-(4-iodobenzoyl)-hydrazinylidene)-ethyl)-benzenesulfonamide], the IC50 is 84.97 ± 0.46 µM at α-glucosidase [1] (setting [3]), 84.97 ± 0.46 µM on α-glucosidase [1] (setting [4]) and above 100 µM in the data set on HEK293 cells.
With `CC(=NNC(=O)c1ccc(Br)cc1)c1ccc(S(=O)(=O)NC(=O)NC2CCCCC2)cc1` [compound 5, N-(Cyclohexylcarbamoyl)-4-(1-(2-(4-bromobenzoyl)-hydrazinylidene)-ethyl)-benzenesulfonamide], the IC50 was 77.36 ± 0.31 µM at α-glucosidase [1] (setting [3]), 77.36 ± 0.31 µM on α-glucosidase [1] (setting [4]) and above 100 µM with HEK293 cells.
In the case of `CC(=NNC(=O)c1ccc(C)cc1)c1ccc(S(=O)(=O)NC(=O)NC2CCCCC2)cc1` [compound 7, N-(Cyclohexylcarbamoyl)-4-(1-(2-(4-methylbenzoyl)-hydrazinylidene)-ethyl)-benzenesulfonamide], the IC50 at α-glucosidase [1] (setting [3]) amounted to 46.14 ± 0.33 µM; on α-glucosidase [1] (setting [4]) it was 46.14 ± 0.33 µM; in the data set with HEK293 cells, 61 µM.
Consider `COc1ccc(C(=O)N/N=C(\C)c2ccc(S(=O)(=O)NC(=O)NC3CCCCC3)cc2)cc1` [compound 8, N-(Cyclohexylcarbamoyl)-4-(1-(2-(4-methoxy)-hydrazinilidene)-ethyl)-benzenesulfonamide], for which the IC50 at α-glucosidase [1] (setting [3]) and at α-glucosidase [1] (setting [4]) was 38.1 ± 0.8 µM throughout. In addition, on α-amylase, the “type of inhibition of α-amylase (enzyme kinetic study, Lineweaver–Burk)” value is “uncompetitive”. Besides, the “cytotoxic effects” value in the data set on HEK293 cells is recorded as “not causing any damage to healthy cells; also recorded: no negative impact on healthy cells”. In addition, the “type of inhibition of α-glucosidase (enzyme kinetic study, Lineweaver–Burk)” value in the data set with α-glucosidase [2] was “uncompetitive”.
Regarding `CC(=NNC(=O)c1cccc([N+](=O)[O-])c1)c1ccc(S(=O)(=O)NC(=O)NC2CCCCC2)cc1` [compound 9, N-(Cyclohexylcarbamoyl)-4-(1-(2-(3-nitrobenzoyl)-hydrazinylidene)-ethyl)-benzenesulfonamide], the IC50 on α-glucosidase [1] (setting [3]) was 61.2 ± 0.69 µM; on α-glucosidase [1] (setting [4]), 61.2 ± 0.69 µM; with HEK293 cells it was 69.2 µM.
On to `CC(=NNC(=O)c1ccc([N+](=O)[O-])cc1)c1ccc(S(=O)(=O)NC(=O)NC2CCCCC2)cc1` [compound 10, N-(Cyclohexylcarbamoyl)-4-(1-(2-(4-nitrobenzoyl)-hydrazinylidene)-ethyl)-benzenesulfonamide], for which the IC50 at α-glucosidase [1] (setting [3]) was 40.44 ± 0.23 µM; at α-glucosidase [1] (setting [4]) it was 40.44 ± 0.23 µM; in the data set on HEK293 cells, above 100 µM. Besides, in the data set with HEK293 cells, the “cytotoxic effects” value is recorded as “not causing any damage to healthy cells; also recorded: no negative impact on healthy cells”.
For the compound `C/C(=N\NC(=O)c1cccc2ccccc12)c1ccc(S(=O)(=O)NC(=O)NC2CCCCC2)cc1` [compound 11, 4-(1-(2-(1-Naphthalene)-hydrazinylidene)-ethyl)-N-(cyclocarbamoyl)-benzenesulfonamide], the figures for the IC50 on α-glucosidase [1] (setting [3]), on α-glucosidase [1] (setting [4]) and with HEK293 cells were 57.1 ± 0.78 µM, 57.1 ± 0.78 µM and above 100 µM, respectively.
Regarding `CC(=NNC(=O)c1ccccc1[N+](=O)[O-])c1ccc(S(=O)(=O)NC(=O)NC2CCCCC2)cc1` [compound 13, N-(Cyclohexylcarbamoyl)-4-(1-(2-(2-nitrobenzoyl)-hydrazinylidene)-ethyl)-benzenesulfonamide], the results for the IC50 at α-glucosidase [1] (setting [3]), on α-glucosidase [1] (setting [4]) and in the data set with HEK293 cells were 66.38 ± 0.37 µM, 66.38 ± 0.37 µM and above 100 µM, respectively.
For the compound `CC(=NNC(=O)c1ccc(Cl)cc1)c1ccc(S(=O)(=O)NC(=O)NC2CCCCC2)cc1` [compound 14, 4-(1-(2-(4-Chlorobenzoyl)-hydrazinylidene)-ethyl)-N-(cyclohexylcarbamoyl)-benzenesulfonamide], the IC50 on α-glucosidase [1] (setting [3]) and on α-glucosidase [1] (setting [4]) was 52.25 ± 0.44 µM throughout.

Usually IC50 stands for the midpoint of a concentration-inhibition curve.
